# Biological target: T1, Human HIF-PHD2 (Homo sapiens, UniProt Q9GZT9)
# T1 construct: FLAG-tagged full length PHD2 expressed in and purified from baculovirus-infected Sf9 cells; FLAG; made in house; host or cells: baculovirus-infected Sf9 cells
# Assay: Inhibition of the hydroxylation of a HIF peptide by PHD2 (time resolved fluorescence, 384-well)
# Type: biochemical
# Conditions: FLAG-tagged full length PHD2; 0.2 μM 2-oxoglutarate, 0.5 μM HIF-1α peptide; 45 minutes at room temperature; read-out: Human HIF-PHD2 IC50
# T1 sequence (Q9GZT9 whole entry): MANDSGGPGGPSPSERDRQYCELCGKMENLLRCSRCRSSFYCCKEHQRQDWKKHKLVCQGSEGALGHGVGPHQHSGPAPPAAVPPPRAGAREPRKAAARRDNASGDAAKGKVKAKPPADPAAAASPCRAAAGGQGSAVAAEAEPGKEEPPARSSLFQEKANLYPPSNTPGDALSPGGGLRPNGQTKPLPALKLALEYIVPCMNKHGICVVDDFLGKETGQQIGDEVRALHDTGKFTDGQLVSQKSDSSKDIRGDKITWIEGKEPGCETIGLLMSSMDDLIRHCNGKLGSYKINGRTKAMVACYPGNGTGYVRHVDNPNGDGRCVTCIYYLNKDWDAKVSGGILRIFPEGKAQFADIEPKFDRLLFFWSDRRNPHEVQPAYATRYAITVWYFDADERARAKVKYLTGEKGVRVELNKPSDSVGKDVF
row,Compound,IC50
1,"O=C(O)CNC(=O)c1c(O)c2ccc(F)c3c2n(c1=O)C(c1ccc(C(F)(F)F)cc1)CN3 (stereo not shown) [Example 115, 2-(10-Fluoro-7-hydroxy-5-oxo-3-(4-(trifluoromethyl)phenyl)-1,2,3,5-tetrahydropyrido[1,2,3-de]quinoxaline-6-carboxamido)acetic acid]",13 nM
2,"Cc1cc2c3c(c1)c(O)c(C(=O)NCC(=O)O)c(=O)n3CCO2 [Example 43, 2-(7-hydroxy-9-methyl-5-oxo-3,5-dihydro-2H-[1,4]oxazino[2,3,4-ij]quinoline-6-carboxamido)acetic acid]",24 nM
3,"Cc1cc2c3c(c1)c(O)c(C(=O)NCC(=O)O)c(=O)n3C(Cc1ccc(C(F)(F)F)cc1)CO2 (stereo not shown) [Example 7, 2-(7-hydroxy-9-methyl-5-oxo-3-(4-(trifluoromethyl)benzyl)-3,5-dihydro-2H-[1,4]oxazino[2,3,4-ij]quinoline-6-carboxamido)acetic acid]",37 nM
4,"O=C(O)CNC(=O)c1c(O)c2c(Br)ccc3c2n(c1=O)C(Cc1ccc(C(F)(F)F)cc1)CO3 (stereo not shown) [Example 26, 2-(8-bromo-7-hydroxy-5-oxo-3-(4-(trifluoromethyl)benzyl)-3,5-dihydro-2H-[1,4]oxazino[2,3,4-ij]quinoline-6-carboxamido)acetic acid]",8.1 nM
5,"O=C(O)CNC(=O)c1c(O)c2c(O)ccc3c2n(c1=O)CC(c1ccc(C(F)(F)F)cc1)O3 (stereo not shown) [Example 80, 2-(7,8-dihydroxy-5-oxo-2-(4-(trifluoromethyl)phenyl)-3,5-dihydro-2H-[1,4]oxazino[2,3,4-ij]quinoline-6-carboxamido)acetic acid]",12 nM

# The next lines start with the values.
row,IC50,Compound
1,15.8 nM,"O=C(O)CNC(=O)c1c(O)c2cccc3c2n(c1=O)C(c1ccc(C(F)(F)F)cc1)CO3 (racemic) [Example 1, 2-(7-Hydroxy-5-oxo-3-(4-(trifluoromethyl)phenyl)-3,5-dihydro-2H-[1,4]oxazino[2,3,4-ij]quinoline-6-carboxamido)acetic acid]"
2,5.1 nM,"O=C(O)CNC(=O)c1c(O)c2cccc3c2n(c1=O)C(c1cncs1)CS3 (stereo not shown) [Example 105, 2-(7-Hydroxy-5-oxo-3-(thiazol-5-yl)-3,5-dihydro-2H-[1,4]thiazino[2,3,4-ij]quinoline-6-carboxamido)acetic acid]"
3,5.8 nM,"N#Cc1cc2c3c(c1)c(O)c(C(=O)NCC(=O)O)c(=O)n3C(c1ccc(C(F)(F)F)cc1)CS2 (stereo not shown) [Example 102, 2-(9-Cyano-7-hydroxy-5-oxo-3-(4-(trifluoromethyl)phenyl)-3,5-dihydro-2H-[1,4]thiazino[2,3,4-ij]quinoline-6-carboxamido)acetic acid]"
4,74 nM,"O=C(O)CNC(=O)c1c(O)c2cccc3c2n(c1=O)C(c1ccccc1)C3 (racemic) [Example 129, 2-(6-Hydroxy-4-oxo-2-phenyl-2,4-dihydro-1H-pyrrolo[3,2,1-ij]quinoline-5-carboxamido)acetic acid]"
5,34 nM,"CN1c2cccc3c(O)c(C(=O)NCC(=O)O)c(=O)n(c23)CC1c1ccc(C(F)(F)F)cc1 (stereo not shown) [Example 65, 2-(7-Hydroxy-1-methyl-5-oxo-2-(4-(trifluoromethyl)phenyl)-1,2,3,5-tetrahydropyrido[1,2,3-de]quinoxaline-6-carboxamido)acetic acid]"

# Same assay, conditions: FLAG-tagged full length PHD2; 0.2 μM 2-oxoglutarate, 0.5 μM HIF-1α peptide; 45 minutes at room temperature; read-out: MS m/z (M + 1)+ and human HIF-PHD2 IC50
row,IC50,Compound
1,74 nM,O=C(O)CNC(=O)c1c(O)c2cccc3c2n(c1=O)C(c1cccc(C(F)(F)F)c1)CO3 (stereo not shown) [Example 167]
2,12 nM,"O=C(O)CNC(=O)c1c(O)c2cc(Cl)cc3c2n(c1=O)CC(c1ccc(C(F)(F)F)cc1)O3 (single isomer, unassigned) [Example 75, 2-(9-chloro-7-hydroxy-5-oxo-2-(4-(trifluoromethyl)phenyl)-3,5-dihydro-2H-[1,4]oxazino[2,3,4-ij]quinoline-6-carboxamido)acetic acid]"
3,15 nM,"O=C(O)CNC(=O)c1c(O)c2c(F)ccc3c2n(c1=O)C(c1ccc(C(F)(F)F)cc1)CO3 (stereo not shown) [Example 162, 2-(8-fluoro-7-hydroxy-5-oxo-3-(4-(trifluoromethyl)phenyl)-3,5-dihydro-2H-[1,4]oxazino[2,3,4-ij]quinoline-6-carboxamido)acetic acid]"

# From patent publication US9969752B2, “Inhibitors of HIF prolyl hydroxylase” (MERCK SHARP & DOHME CORP., priority 2014, dated 2018)
